Results on one compound are retold here after article PMC10800100, “DoAP2/ERF89 activated the terpene synthase gene DoPAES in Dendrobium officinale and participated in the synthesis of β-patchoulene” (PeerJ, 2024).

The target of this assay is T1, DoPAES (Dendrobium catenatum, UniProt A0A975TQG2).
T1 sequence (A0A975TQG2 1-550): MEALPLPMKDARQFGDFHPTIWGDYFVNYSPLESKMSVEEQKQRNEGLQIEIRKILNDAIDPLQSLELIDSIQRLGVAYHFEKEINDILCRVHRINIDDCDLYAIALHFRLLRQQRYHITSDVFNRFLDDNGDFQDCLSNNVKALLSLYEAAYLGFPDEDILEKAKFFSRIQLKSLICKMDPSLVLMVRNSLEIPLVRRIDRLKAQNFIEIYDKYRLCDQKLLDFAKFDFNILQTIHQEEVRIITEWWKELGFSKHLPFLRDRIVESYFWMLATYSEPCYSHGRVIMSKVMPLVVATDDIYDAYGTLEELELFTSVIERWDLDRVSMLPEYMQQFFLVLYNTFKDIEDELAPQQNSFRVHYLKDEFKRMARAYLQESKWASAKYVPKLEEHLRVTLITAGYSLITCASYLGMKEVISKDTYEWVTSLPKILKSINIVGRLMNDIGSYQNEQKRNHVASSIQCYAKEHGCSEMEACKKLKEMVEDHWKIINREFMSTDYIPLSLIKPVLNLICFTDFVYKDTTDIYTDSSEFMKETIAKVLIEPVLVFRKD
The assay is described as follows: HS-SPME-GC-MS of products formed by crude recombinant protein. The class given is biochemical. The settings on record: 50 mmol/L Tris pH 7.5, 10 mmol/L MgCl2, 10 μmol/L MnCl2, 30 °C, 30 min.

For the compound `CC(C)=CCC/C(C)=C/CC/C(C)=C/COP(=O)(O)OP(=O)(O)O` [FPP], the “HS-SPME-GC-MS of products formed by crude recombinant protein” value is given as “The products were then detected by GC-MS after adding substrate FPP”.
